The source of these data is patent US10023570B2 (Array BioPharma, Inc., priority 2015, dated 2018).

The structures appear in SMILES notation. Counter-ions that a name gives are not always drawn.

The target of the first test is human KDR protein in HEK-293 cells (Homo sapiens (Human), UniProt P35968). In words: KDR Cell Assay (phospho-KDR in HEK-293 cells expressing inducible KDR). Conditions: pKDR Cell HEK 10% FBS IC50, HEK-293 cells expressing inducible KDR, VEGF stimulated. Type of test: cell-based. The protocol: The cellular potency of a compound inhibiting KDR kinase was determined in HEK-293 cells expressing an inducible human KDR protein. […] The cells were incubated for 1 hour with test compound in DMEM at a final DMSO concentration of 0.25%. […] The media was aspirated and 35 μL of a 1× lysis buffer was added. […] The lysate was stored at −80° C. until ready for assay. Phospho-KDR was measured using a phospho-KDR kit (Catalog #K151BOC) purchased from Meso Scale Diagnostics (Rockville, Md.) according to the manufacturer's instructions. All values are expressed as percent of percent of control (POC). The POC values were fitted to a 4 parameter logistic curve fit and the IC50 value is point where the curve crosses 50 POC.
human KDR protein in HEK-293 cells, sequence (P35968 20-1356): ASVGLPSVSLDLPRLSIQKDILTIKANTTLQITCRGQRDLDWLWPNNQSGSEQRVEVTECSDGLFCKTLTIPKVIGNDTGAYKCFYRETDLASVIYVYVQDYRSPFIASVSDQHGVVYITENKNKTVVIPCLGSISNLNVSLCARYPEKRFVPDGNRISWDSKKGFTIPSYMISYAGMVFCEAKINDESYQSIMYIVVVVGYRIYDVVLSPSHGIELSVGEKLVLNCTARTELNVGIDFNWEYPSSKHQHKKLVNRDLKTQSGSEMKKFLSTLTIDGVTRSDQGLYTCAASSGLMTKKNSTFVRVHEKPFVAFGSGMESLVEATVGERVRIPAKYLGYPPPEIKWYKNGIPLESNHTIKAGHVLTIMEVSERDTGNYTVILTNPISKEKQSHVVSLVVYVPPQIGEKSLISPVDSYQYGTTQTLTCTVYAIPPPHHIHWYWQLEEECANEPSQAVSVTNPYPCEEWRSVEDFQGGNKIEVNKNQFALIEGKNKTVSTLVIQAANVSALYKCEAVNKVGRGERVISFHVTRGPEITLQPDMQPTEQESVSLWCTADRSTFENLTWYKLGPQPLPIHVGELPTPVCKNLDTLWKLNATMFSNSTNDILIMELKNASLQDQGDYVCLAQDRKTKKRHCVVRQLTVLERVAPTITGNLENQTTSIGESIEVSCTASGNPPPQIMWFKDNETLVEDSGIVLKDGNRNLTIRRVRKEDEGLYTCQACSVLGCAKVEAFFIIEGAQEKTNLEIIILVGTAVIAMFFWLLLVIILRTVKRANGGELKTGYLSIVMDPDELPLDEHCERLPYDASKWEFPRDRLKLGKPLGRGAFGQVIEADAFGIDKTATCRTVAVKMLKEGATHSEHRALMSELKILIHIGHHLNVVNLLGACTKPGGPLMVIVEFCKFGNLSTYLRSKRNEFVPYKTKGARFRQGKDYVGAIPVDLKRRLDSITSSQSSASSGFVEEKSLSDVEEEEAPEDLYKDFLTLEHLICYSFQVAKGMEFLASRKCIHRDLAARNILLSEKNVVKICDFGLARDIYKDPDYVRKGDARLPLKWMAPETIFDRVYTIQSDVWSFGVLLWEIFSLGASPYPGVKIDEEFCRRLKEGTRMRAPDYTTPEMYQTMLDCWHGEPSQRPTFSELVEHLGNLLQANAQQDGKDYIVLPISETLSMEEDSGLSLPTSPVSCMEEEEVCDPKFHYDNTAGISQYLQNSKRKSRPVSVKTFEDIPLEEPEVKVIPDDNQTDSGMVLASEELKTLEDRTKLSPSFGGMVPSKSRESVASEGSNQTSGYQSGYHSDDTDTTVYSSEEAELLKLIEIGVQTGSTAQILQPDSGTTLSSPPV
As to `Cn1cc(-c2cc(-c3ccc(N4CCC5(CCN(C(=O)OC(C)(C)C)CC5)CC4)nc3)c3c(C#N)cnn3c2)cn1` [Example 511, tert-butyl 9-(5-(3-cyano-6-(1-methyl-1H-pyrazol-4-yl)pyrazolo[1,5-a]pyridin-4-yl)pyridin-2-yl)-3,9-diazaspiro[5.5]undecane-3-carboxylate], inhibition was half-maximal at 1050 nM (IC50).

In turn, `Cn1cc(-c2cc(-c3ccc(N4CCC5(CNC5)C4)nc3)c3c(C#N)cnn3c2)cn1` [Example 549, 4-(6-(2,6-diazaspiro[3.4]octan-6-yl)pyridin-3-yl)-6-(1-methyl-1H-pyrazol-4-yl)pyrazolo[1,5-a]pyridine-3-carbonitrile dihydrochloride] displayed an IC50 of 986 nM.

Consider `Cn1cc(-c2cc(-c3ccc(N4CCN(C(=O)N5CCN6CCCC6C5)CC4)nc3)c3c(C#N)cnn3c2)cn1` (stereo not shown) [Example 381, 6-(1-methyl-1H-pyrazol-4-yl)-4-(6-(4-(octahydropyrrolo[1,2-a]pyrazine-2-carbonyl)piperazin-1-yl)pyridin-3-yl)pyrazolo[1,5-a]pyridine-3-carbonitrile], for which the IC50 is 811 nM.

In turn, `Cn1cc(-c2cc(-c3ccc(N4CCN(Cc5ccc(F)cn5)CC4)nc3)c3c(C#N)cnn3c2)cn1` [Example 462, 4-(6-(4-((5-fluoropyridin-2-yl)methyl)piperazin-1-yl)pyridin-3-yl)-6-(1-methyl-1H-pyrazol-4-yl)pyrazolo[1,5-a]pyridine-3-carbonitrile] returned a half-inhibitory concentration (IC50) of 804 nM.

In turn, `Cn1cc(-c2cc(-c3ccc(N4CCC5(CN(Cc6ccccc6)C5)C4)nc3)c3c(C#N)cnn3c2)cn1` [Example 558, 4-(6-(2-benzyl-2,6-diazaspiro[3.4]octan-6-yl)pyridin-3-yl)-6-(1-methyl-1H-pyrazol-4-yl)pyrazolo[1,5-a]pyridine-3-carbonitrile] yielded an IC50 of 548 nM.

In turn, `Cn1cc(-c2cc(-c3ccc(N4CCC(c5ccc(Cl)cc5)CC4)nc3)c3c(C#N)cnn3c2)cn1` [Example 534, 4-(6-(4-(4-chlorophenyl)piperidin-1-yl)pyridin-3-yl)-6-(1-methyl-1H-pyrazol-4-yl)pyrazolo[1,5-a]pyridine-3-carbonitrile 2,2,2-trifluoroacetate] gave an IC50 of 12.5 nM.

`Cc1cccnc1CN1CCN(c2ccc(-c3cc(-c4cnn(C)c4)cn4ncc(C#N)c34)cn2)CC1` [Example 438, 6-(1-methyl-1H-pyrazol-4-yl)-4-(6-(4-((3-methylpyridin-2-yl)methyl)piperazin-1-yl)pyridine-3-yl)pyrazolo[1,5-a]pyridine-3-carbonitrile] showed an IC50 of 1990 nM.

Turning to `COc1ccc(N(C)C(=O)N2CCN(c3ccc(-c4cc(-c5cnn(C)c5)cn5ncc(C#N)c45)cn3)CC2)cc1` [Example 383, 4-(5-(3-cyano-6-(1-methyl-1H-pyrazol-4-yl)pyrazolo[1,5-a]pyridine-4-yl)pyridin-2-yl)-N-(4-methoxyphenyl)-N-methylpiperazine-1-carboxamide], inhibition was half-maximal at 639 nM (IC50).

As for `Cn1cc(-c2cc(-c3ccc(N4CCC5(CC4)CN(C(=O)N4CCCC4)C5)nc3)c3c(C#N)cnn3c2)cn1` [Example 500, 6-(1-methyl-1H-pyrazol-4-yl)-4-(6-(2-(pyrrolidine-1-carbonyl)-2,7-diazaspiro[3.5]nonan-7-yl)pyridin-3-yl)pyrazolo[1,5-a]pyridine-3-carbonitrile], the IC50 is 458 nM.

In turn, `Cn1cc(-c2cc(-c3ccc(N4CCN(Cc5ccccc5Cl)CC4)nc3)c3c(C#N)cnn3c2)cn1` [Example 454, 4-(6-(4-(2-chlorobenzyl)piperazin-1-yl)pyridin-3-yl)-6-(1-methyl-1H-pyrazol-4-yl)pyrazolo[1,5-a]pyridine-3-carbonitrile] came in with an IC50 of 698 nM.

As for `CN(C)c1ccc(CN2CCN(c3ccc(-c4cc(-c5cnn(C)c5)cn5ncc(C#N)c45)cn3)CC2)cc1` [Example 461, 4-(6-(4-(4-(dimethylamino)benzyl)piperazin-1-yl)pyridin-3-yl)-6-(1-methyl-1H-pyrazol-4-yl)pyrazolo[1,5-a]pyridine-3-carbonitrile], half-maximal inhibition (IC50) was put at 129 nM.

As for `Cc1cc(CN2CCN(c3ccc(-c4cc(-c5cnn(C)c5)cn5ncc(C#N)c45)cn3)CC2)no1` [Example 436, 6-(1-methyl-1H-pyrazol-4-yl)-4-(6-(4-((5-methylisoxazol-3-yl)methyl)piperazin-1-yl)pyridin-3-yl)pyrazolo[1,5-a]pyridine-3-carbonitrile], the IC50 stood at 536 nM.

The molecule `Cn1cc(-c2cc(-c3ccc(N4C5CCC4CN(Cc4ccccc4)C5)nc3)c3c(C#N)cnn3c2)cn1` [Example 491, 4-(6-(3-benzyl-3,8-diazabicyclo[3.2.1]octan-8-yl)pyridin-3-yl)-6-(1-methyl-1H-pyrazol-4-yl)pyrazolo[1,5-a]pyridine-3-carbonitrile] gave an IC50 of 120 nM.

The test is the same for the next values; noted with them: pKDR Cell HEK 10% FBS IC50, HEK-293 cells expressing inducible KDR, VEGF stimulated, 10% FBS.
Regarding `CN(C)CC(=O)N1CC2CCC(C1)N2c1ccc(-c2cc(-c3cnn(C)c3)cn3ncc(Cl)c23)cn1` [Example 336, 1-(8-(5-(3-chloro-6-(1-methyl-1H-pyrazol-4-yl)pyrazolo[1,5-a]pyridin-4-yl)pyridin-2-yl)-3,8-diazabicyclo[3.2.1]octan-3-yl)-2-(dimethylamino)ethanone], the IC50 was 614 nM.

Take `Cn1cc(-c2cc(-c3ccc(N4CCN(C(=O)N5CCCC(F)(F)C5)CC4)nc3)c3c(C#N)cnn3c2)cn1` [Example 94, 4-(6-(4-(3,3-difluoropiperidine-1-carbonyl)piperazin-1-yl)pyridin-3-yl)-6-(1-methyl-1H-pyrazol-4-yl)pyrazolo[1,5-a]pyridine-3-carbonitrile]: the IC50 stood at 1700 nM.

With `Cn1cc(-c2cc(-c3ccc(N4CCN(C(=O)Cc5ccc(C#N)cc5)CC4)nc3)c3c(C#N)cnn3c2)cn1` [Example 365, 4-(6-(4-(2-(4-cyanophenyl)acetyl)piperazin-1-yl)pyridin-3-yl)-6-(1-methyl-1H-pyrazol-4-yl)pyrazolo[1,5-a]pyridine-3-carbonitrile 2,2,2-trifluoroacetate], the IC50 came out at 597 nM.

The molecule `Cn1cc(-c2cc(-c3ccc(N4CCN(C(=O)C(C)(C)c5ccccc5)CC4)nc3)c3c(C#N)cnn3c2)cn1` [Example 26, 6-(1-methyl-1H-pyrazol-4-yl)-4-(6-(4-(2-methyl-2-phenylpropanoyl)piperazin-1-yl)pyridin-3-yl)pyrazolo[1,5-a]pyridine-3-carbonitrile] displayed an IC50 of 476 nM.

In turn, `Cn1cc(-c2cc(-c3ccc(N4CCN(C(=O)C5(c6ccccn6)CC5)CC4)nc3)c3c(C#N)cnn3c2)cn1` [Example 359, 6-(1-methyl-1H-pyrazol-4-yl)-4-(6-(4-(1-(pyridine-2-yl)cyclopropane-1-carbonyl)piperazin-1-yl)pyridin-3-yl)pyrazolo[1,5-a]pyridine-3-carbonitrile bis(2,2,2-trifluoroacetate)] returned an IC50 of 910 nM.

In the case of `CO[C@H]1CCN(C(=O)N2CCN(c3ccc(-c4cc(-c5cnn(C(F)F)c5)cn5ncc(C#N)c45)cn3)CC2)C1` [Example 269, (S)-6-(1-(difluoromethyl)-1H-pyrazol-4-yl)-4-(6-(4-(3-methoxypyrrolidine-1-carbonyl)piperazin-1-yl)pyridin-3-yl)pyrazolo[1,5-a]pyridine-3-carbonitrile], half-maximal inhibition (IC50) was put at 1700 nM.

With `Cn1cc(-c2cc(-c3ccc(N4CCC5(CC4)CN(C(=O)OC(C)(C)C)C5)nc3)c3c(C#N)cnn3c2)cn1` [Example 214, tert-butyl 7-(5-(3-cyano-6-(1-methyl-1H-pyrazol-4-yl)pyrazolo[1,5-a]pyridin-4-yl)pyridin-2-yl)-2,7-diazaspiro[3.5]nonane-2-carboxylate], the IC50 worked out at 597 nM.

`Cn1cc(-c2cc(-c3ccc(N4CCN(C(=O)C5(c6ccccc6)CCOCC5)CC4)nc3)c3c(C#N)cnn3c2)cn1` [Example 342, 6-(1-methyl-1H-pyrazol-4-yl)-4-(6-(4-(4-phenyltetrahydro-2H-pyran-4-carbonyl)piperazin-1-yl)pyridin-3-yl)pyrazolo[1,5-a]pyridine-3-carbonitrile]: the IC50 was found to be 4750 nM.

As to `Cn1cc(-c2cc(-c3ccc(N4CCN(C(=O)N5CCC[C@H]5C(F)(F)F)CC4)nc3)c3c(C#N)cnn3c2)cn1` [Example 113, (S)-6-(1-methyl-1H-pyrazol-4-yl)-4-(6-(4-(2-(trifluoromethyl)pyrrolidine-1-carbonyl)piperazin-1-yl)pyridin-3-yl)pyrazolo[1,5-a]pyridine-3-carbonitrile], the IC50 was 654 nM.

`Cn1cc(-c2cc(-c3ccc(N4CCN(C(=O)Cc5ccnn5C)CC4)nc3)c3c(C#N)cnn3c2)cn1` [Example 20, 6-(1-methyl-1H-pyrazol-4-yl)-4-(6-(4-(2-(1-methyl-1H-pyrazol-5-yl)acetyl)piperazin-1-yl)pyridin-3-yl)pyrazolo[1,5-a]pyridine-3-carbonitrile] gave an IC50 of 1650 nM.

Molecule `Cn1cc(-c2cc(-c3ccc(N4CCN(C(=O)OC(C)(C)C)C5(CC5)C4)nc3)c3c(C#N)cnn3c2)cn1` [Example 166, tert-butyl 7-(5-(3-cyano-6-(1-methyl-1H-pyrazol-4-yl)pyrazolo[1,5-a]pyridin-4-yl)pyridin-2-yl)-4,7-diazaspiro[2.5]octane-4-carboxylate] had an IC50 of 1990 nM.

`Cn1cc(-c2cc(-c3ccc(N4CCN(C(=O)C5CC5)CC4)nc3)c3c(C#N)cnn3c2)cn1` [Example 68, 4-(6-(4-(cyclopropanecarbonyl)piperazin-1-yl)pyridin-3-yl)-6-(1-methyl-1H-pyrazol-4-yl)pyrazolo[1,5-a]pyridine-3-carbonitrile] returned an IC50 of 789 nM.
